The text below walks through data of ChEMBL document CHEMBL2086234, “Phenolic constituents from the rhizomes of Acorus gramineus and their biological evaluation on antitumor and anti-inflammatory activities” (Bioorg Med Chem Lett, 2012).

Data set [1] can be described thus: Cytotoxicity against mouse BV2 cells assessed as cell viability at 20 uM by MTT assay. In kind it is cell-based, BV-2. The following applies: read-out: Activity.
The next data set deals with A549. The data set is described as follows: Cytotoxicity against human A549 cells by SRB assay. Format: functional, cell-based.
In a further data set the test system is SK-OV-3. The data set is described as follows: Cytotoxicity against human SKOV3 cells by SRB assay. Format: functional, cell-based.
A further data set has as its system SK-MEL-2. Nature of the data set: Cytotoxicity against human SK-MEL-2 cells by SRB assay. Format: functional, cell-based.
A further data set concerns HCT-15. The data set is described as follows: Cytotoxicity against human HCT15 cells by SRB assay. Format: functional, cell-based.
Data set [2] relates to BV-2. Nature of the data set: Antiinflammatory activity in mouse BV2 cells assessed as inhibition of LPS-induced NO production treated 30 mins before LPS stimulation measured after 24 hrs by Griess reaction. In kind it is functional, cell-based.
In data set [3] the target is T1, Nitric oxide synthase, inducible (Mus musculus) (UniProt P29477).
T1 sequence (whole entry): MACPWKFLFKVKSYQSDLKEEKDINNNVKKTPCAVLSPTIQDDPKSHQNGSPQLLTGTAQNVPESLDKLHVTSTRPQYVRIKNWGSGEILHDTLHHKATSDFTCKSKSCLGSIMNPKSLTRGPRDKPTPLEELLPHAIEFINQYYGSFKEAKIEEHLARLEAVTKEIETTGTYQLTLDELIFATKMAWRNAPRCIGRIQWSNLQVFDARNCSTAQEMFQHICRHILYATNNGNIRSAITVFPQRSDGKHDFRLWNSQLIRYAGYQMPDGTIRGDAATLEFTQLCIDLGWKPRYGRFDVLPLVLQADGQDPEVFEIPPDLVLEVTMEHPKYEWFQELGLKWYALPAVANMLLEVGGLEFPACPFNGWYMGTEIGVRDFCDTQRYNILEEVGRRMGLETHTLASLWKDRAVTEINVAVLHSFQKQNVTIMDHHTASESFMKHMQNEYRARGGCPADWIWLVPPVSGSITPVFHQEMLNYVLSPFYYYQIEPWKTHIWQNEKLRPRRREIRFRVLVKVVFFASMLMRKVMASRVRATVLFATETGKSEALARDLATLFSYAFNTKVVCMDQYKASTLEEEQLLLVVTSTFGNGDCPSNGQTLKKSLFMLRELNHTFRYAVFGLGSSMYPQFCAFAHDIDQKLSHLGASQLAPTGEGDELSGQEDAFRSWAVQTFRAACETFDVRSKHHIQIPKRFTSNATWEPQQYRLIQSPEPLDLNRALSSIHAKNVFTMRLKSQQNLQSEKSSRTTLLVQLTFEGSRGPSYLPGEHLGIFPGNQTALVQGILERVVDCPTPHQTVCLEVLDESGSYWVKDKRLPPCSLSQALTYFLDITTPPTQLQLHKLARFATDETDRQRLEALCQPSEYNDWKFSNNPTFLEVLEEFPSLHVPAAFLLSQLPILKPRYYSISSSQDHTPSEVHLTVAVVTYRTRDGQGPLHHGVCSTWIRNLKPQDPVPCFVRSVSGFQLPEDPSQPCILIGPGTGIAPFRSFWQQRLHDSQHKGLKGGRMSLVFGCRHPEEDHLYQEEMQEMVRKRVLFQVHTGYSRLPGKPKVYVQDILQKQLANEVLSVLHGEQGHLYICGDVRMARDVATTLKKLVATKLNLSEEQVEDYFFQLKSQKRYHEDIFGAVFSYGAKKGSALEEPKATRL
Nature of the data set: Inhibition of iNOS activity in mouse BV2 cells assessed as inhibition of LPS-induced NO production at 20 uM treated 12 hrs before LPS challenge measured after 12 hrs by Griess reaction. In kind it is cell-based. The following applies: BV-2.

For data set [4], the system named is BV-2. The data set is described as follows: Antiinflammatory activity in mouse BV2 cells assessed as inhibition of LPS-induced iNOS protein expression at 10 to 20 uM treated 30 mins before LPS stimulation measured after 6 hrs by Western blot analysis. Format: functional, cell-based.
Data set [5] concerns BV-2. Nature of the data set: Antiinflammatory activity in mouse BV2 cells assessed as inhibition of sodium nitroprusside-induced nitrite accumulation at 10 to 20 uM after 180 mins by Griess reaction. Format: functional, cell-based.

Molecules are shown by their SMILES. Active and inactive are the calls of the source. No cut-off for these calls is given here.

On to `O=C(CCO)c1ccc(O)cc1`, for which the viability at 20 µM in [1] is 107%. The IC50 is greater than 30 µM with A549; greater than 30 µM in the data set on SK-OV-3; greater than 30 µM in the data set on SK-MEL-2; greater than 30 µM with HCT-15; 58.1 µM in the data set on BV-2 [2].

For the molecule `COc1cc(CCCO)ccc1O[C@H](C)[C@H](O)c1cc(OC)c(OC)c(OC)c1`, the viability at 20 µM in [1] came to 88.8%. Besides, the IC50 was 4.17 µM in the data set on A549; 26.2 µM in the data set on SK-OV-3; 14.2 µM in the data set on SK-MEL-2; 24.3 µM in the data set with HCT-15; 17.9 µM with BV-2 [2]. For the same molecule, the inhibition result in data set [3] is “Active”.

`COc1cc(/C=C\CO)ccc1O`: in data set [1], the viability at 20 µM amounted to 98.4%. Besides, the IC50 in the data set on A549 came out at 11 µM; in the data set on SK-OV-3 it was 13 µM; in the data set with SK-MEL-2 it was 14.7 µM; in the data set on HCT-15 it was 20.4 µM; with BV-2 [2], 14.1 µM. In addition, the inhibition result (in data set [3]; with BV-2 [4]) was “Active” each time.

Regarding `COc1cc(CCCO)cc(OC)c1OC`, the viability at 20 µM in [1] was 96.3%. The 50% inhibitory concentration (IC50) in the data set on A549 was greater than 30 µM; with SK-OV-3, greater than 30 µM; in the data set on SK-MEL-2 it was greater than 30 µM; in the data set on HCT-15, greater than 30 µM; with BV-2 [2], 142 µM.

With `COc1ccc(CCCO)cc1OC`, in data set [1], the viability at 20 µM was 103%. In addition, the 50% inhibitory concentration (IC50) in the data set with A549 is 23.1 µM; in the data set with SK-OV-3 it was 11.8 µM; in the data set on SK-MEL-2 it was 21.9 µM; in the data set on HCT-15, 26.6 µM; in the data set with BV-2 [2], greater than 500 µM.

Consider `COc1cc(/C=C\C(=O)NCCc2ccc(O)cc2)ccc1O`, for which the viability at 20 µM in data set [1] amounted to 100%. Besides, the IC50 in the data set on A549 is greater than 30 µM; with SK-OV-3 it was greater than 30 µM; with SK-MEL-2, greater than 30 µM; in the data set with HCT-15, greater than 30 µM; in the data set on BV-2 [2], 32.1 µM.

`COc1cc(/C=C/C(=O)NC[C@@H](O)c2ccc(O)cc2)ccc1O`: the viability at 20 µM in data set [1] came to 98.3%. In addition, the half-maximal inhibitory concentration (IC50) in the data set on A549 is greater than 30 µM; with SK-OV-3, greater than 30 µM; in the data set on SK-MEL-2 it was greater than 30 µM; in the data set with HCT-15 it was greater than 30 µM; in the data set with BV-2 [2], 54.8 µM.

Regarding `COc1cc([C@H](O)[C@@H](CO)Oc2c(OC)cc(CCCO)cc2OC)ccc1O` (relative stereo), the viability at 20 µM in data set [1] was found to be 106%. Also, the IC50 in the data set on A549 was greater than 30 µM; in the data set on SK-OV-3, greater than 30 µM; in the data set with SK-MEL-2 it was 29.1 µM; in the data set on HCT-15, greater than 30 µM; in the data set with BV-2 [2], 37.2 µM.

Consider `COc1cc(OC)c([C@H]2[C@@H](C)[C@@H](c3cc(OC)c(OC)cc3OC)O[C@@H]2C)cc1OC` (relative stereo), for which the viability at 20 µM in [1] was 101%. Besides, the half-maximal inhibitory concentration (IC50) in the data set with A549 was greater than 30 µM; with SK-OV-3 it was 26.4 µM; in the data set on SK-MEL-2, 11.3 µM; with HCT-15, greater than 30 µM; with BV-2 [2] it was 59.9 µM.

On to `COc1cc(OC)c([C@@H]2[C@H](C)[C@@H](C)[C@H]2c2cc(OC)c(OC)cc2OC)cc1OC` (relative stereo) [MAGNOSALIN], for which the inhibition result in the data set on BV-2 [5] and in the data set with BV-2 [4] was “Active” throughout. In addition, the viability at 20 µM in data set [1] worked out at 93.1%. Besides, the IC50 was 19.6 µM in the data set on A549; 27.4 µM with SK-OV-3; 8.7 µM in the data set on SK-MEL-2; 23.1 µM in the data set with HCT-15; 18.7 µM in the data set with BV-2 [2].

Take `COc1cc(OC)c(OC)cc1/C=C\CO` [ACORAMOL]: the viability at 20 µM in data set [1] was 105%. Also, the IC50 in the data set with A549 is greater than 30 µM; in the data set on SK-OV-3, greater than 30 µM; in the data set on SK-MEL-2, 25.2 µM; in the data set with HCT-15, greater than 30 µM; in the data set with BV-2 [2] it was 126 µM.

In the case of `COc1cccc2c1C(=O)c1c(O)c3c(c(O)c1C2=O)C[C@@](O)(C(=O)CO)C[C@@H]3O[C@H]1C[C@H](N)[C@H](O)[C@H](C)O1` [DOXORUBICIN], the IC50 was 0.004 µM in the data set on SK-OV-3, 0.004 µM with SK-MEL-2 and 0.082 µM with HCT-15.

On to `COc1cc(/C=C/C(=O)NCCc2ccc(O)cc2)ccc1O` [N-TRANS-FERULOYL TYRAMINE], for which the inhibition entry (with BV-2 [5]; in data set [3]; in the data set on BV-2 [4]) was “Active” in each case. The viability at 20 µM in [1] worked out at 97.8%. In addition, the IC50 in the data set with A549 is greater than 30 µM; in the data set on SK-OV-3, greater than 30 µM; in the data set with SK-MEL-2 it was greater than 30 µM; in the data set with HCT-15 it was greater than 30 µM; in the data set on BV-2 [2], 17.4 µM.

As for `COc1cc(CCCO)ccc1O[C@H](C)[C@@H](O)c1cc(OC)c(OC)c(OC)c1` [SURINAMENSINOL B], the inhibition result with BV-2 [5] is “Active”. In data set [1], the viability at 20 µM stood at 76.2%. Further, the IC50 with A549 is 5.41 µM; with SK-OV-3 it was 21.4 µM; in the data set on SK-MEL-2, 10.4 µM; with HCT-15, 18.8 µM; in the data set on BV-2 [2], 8.17 µM.

As for `CNC(=N)NCCC[C@H](N)C(=O)O` [TILARGININE], the viability at 20 µM in data set [1] was found to be 98.8%. Moreover, in the data set with BV-2 [2], the half-maximal inhibitory concentration (IC50) is 18.2 µM.
